We go through 13 compounds from US20220168252A1, “RETINOID DERIVATIVES WITH ANTITUMOR ACTIVITY” (BIOGEM S.C. A R.L., priority 2016, published 2022).

Where a name gives a salt, the structure may show the parent alone. Some results are limits rather than exact numbers.

One series concerns Human NCI-H460 NSCLC. The experiment in a line: Anti-proliferative activity, NCI-H460, 72 h, SRB. As to conditions: for IC50: Homo sapiens, NCI-H460, chronically exposed 72 h, SRB (Table 2), read-out: IC50 ± SD. It counts as cell-based. Here is the method: The anti-proliferative activity of the POLA1/HDAC dual inhibitors MIR002 and GEM144 was assessed on various cell lines from solid and hematological cancers.
Human tumor cells were treated with POLA1/HDAC dual inhibitors and cell survival assessed upon 72 h with the SRB assay. HDAC=Histone Deacetylase. POLA1=DNA Polymerase Alpha 1. RI=Resistance Index.

The test system of the next series is MM487-Luc mesothelioma. In words: Anti-proliferative activity, MM487-Luc, 24 h + 48 h recovery, SRB. It counts as cell-based. As to conditions: Homo sapiens, 24 h exposure, read-out: IC50 ± SD MM487-Luc. Here is the method:
(§1) Tumor cells were exposed for 24 h to new atypical retinoids (AR) and the anti-proliferative activity assessed upon 48 h recovery in drug-free medium with the SRB assay. RI=Resistance Index (ratio between the IC50 values of resistant and sensitive cells).

Series [1] has as its system Human Adarotene-resistant NCI-H460 (R9A) NSCLC. In words: Anti-proliferative activity, H460-R9A, 24 h + 48 h recovery, SRB. In kind it is cell-based. The note with it: 24 h exposure, read-out: IC50 ± SD H460-R9A. Here is the method: as §1
For series [2], the system named is parent A2780 ovarian cancer cell line. In words: Anti-proliferative activity, A2780, 24 h + 48 h recovery, SRB. It counts as cell-based. As to conditions: Homo sapiens, 24 h exposure, read-out: IC50 ± SD A2780. Here is the method:
as §1

Series [3] concerns A2780-Dx multidrug-resistant ovarian cancer cell line. The experiment in a line: Anti-proliferative activity, A2780-Dx, 24 h + 48 h recovery, SRB. The note with it: for RI (Resistance Index, ratio between the IC50 values of resistant and sensitive cells): A2780-Dx vs A2780, 24 h exposure; for IC50: Homo sapiens, A2780/DX, 24 h exposure, SRB, read-out: IC50 ± SD A2780-Dx. It counts as cell-based, Human. Here is the method: as §1
As described by Zuco V. et al in Neoplasia, 2005 July; 7(7):667-77, H460-R9A are about 70 fold resistant with respect to parental H460 to Adarotene. […] Ovarian cancer A2780 and its clone derivative A2780DX (Doxorubicin resistant) which overexpress P-glycoprotein (PGP), were used to evaluate the possibility of these new molecules to be absorbed at intestinal level. In fact, the overexpression of PGP, as well known, drastically reduces the possibility, after oral administration, of absorption of several chemotherapeutic agents (i.e. Paclitaxel, doxorubicin etc.). Since the IC50 of the tested compounds in A2780 and A2780DX, have similar values we conclude that they are not PGP substrates and they could be administrated to the patients via oral route.

Another series concerns U87MG-Luc (Glioma). The experiment in a line: Orthotopic glioma murine model (U87MG-Luc), IVIS imaging. In kind it is in vivo, mice. As to conditions: 100 mg/kg IP, qdx5x4w, intracranial U87MG-Luc. Here is the method: Orthotopic glioma murine model. 1×10^6 Brain glioblastoma bioluminescent cells (U-87 MG) were injected intracranically and tumor growth was evaluated through IVIS imaging system.
Tumor growth was followed by biweekly measurements. […] Mice were weighed twice a week. […] Tumor growth was further followed by weekly BLI measurements. TGI was calculated as for the H460 trial.
The activity of compound 2 (RC1375) was evaluated on glioma xenograft murine models. Brain glioblastoma bioluminescent cells (U-87 MG) were injected intracranically and tumor growth was evaluated through IVIS imaging system. After a week of injection, 2 (RC1375) (100 mg/kg) was administered intraperitoneally to mice (qdx5x4w).

For the next series, the system named is U87MG glioblastoma cells. In words: Anti-proliferative activity, U87MG, 24 h + 48 h recovery, SRB. In kind it is cell-based. As to conditions: Homo sapiens, U-87 MG, 24 h exposure, read-out: IC50 ± SD U87MG. Here is the method:
as §1

The test system of series [4] is H460-R9A retinoid resistant cells. The experiment in a line: H460-R9A lung cancer subcutaneous xenograft in mice. As to conditions: Cisplatin 4 mg/kg IV q7dx4w, MIR002 50 mg/kg OS bid, qdx5/wx4w.
Experimental: CD-1 nude and NOG mice, females, 4-5 weeks-old, were housed under specific-pathogen-free conditions in individually ventilated cages.
Cells were cultured in appropriated media and expanded in a 37° C. incubator with saturated humidity and an atmosphere of 95% air and 5% CO2, and were sub-cultured every 2-3 days. Before the injection in mice, cells were checked with MycoAlert® Mycoplasma Detection Kit (Lonza) to exclude mycoplasma contamination, counted by trypan blue dye exclusion, evaluated for cell viability (>95%).
H-460-R9A lung cancer cells were suspended at a concentration of 25×10^6/ml. 5×10^6 tumor cells were suspended in 0.2 ml of M199, then inoculated subcutaneously on the right flank of each animal.
MIR002 was dissolved to a concentration of 3.3 mg/mL in 10% DMSO, 5% ethanol, 20% Kolliphor® EL and 65% Na2CO3 10 mM pH 11 and administered by gavage; Cisplatin was dissolved to a concentration of 0.8 mg/mL in sterile saline solution and administered intravenously.
Four days after inoculation, tumor masses of H460-R9A were measured in length and width using a Mitutoyo caliper, mice were sorted basing on tumor volume (TV) and treatments were started. Tumor volume was calculated as follows: TV (mm3)=(Length (mm)×Width (mm)2)/2. Tumor growth was followed by biweekly measurements. Tumor Growth Inhibition (TGI) for each group was calculated as follows: TGI (%)=100−(mean TVtreated/mean TVcontrol×100). Mice were weighed twice a week.
Series [5] deals with Human Adarotene-resistant NCI-H460 (R9A) NSCLC. As to conditions: Zuco V. et al, Neoplasia 2005; cited from earlier work.

As usually defined, the IC50 is the concentration needed to halve the response being measured. As to `O=C(O)/C=C/c1ccc(-c2ccc(OCCCC(=O)NCCSSCCNC(=O)C(Cc3ccc(O)c(Br)c3)=NO)c(C34CC5CC(CC(C5)C3)C4)c2)cc1` [Compound 5, 3-{3′-Adamantan-1-yl-4′-[3-(2-{2-[3-(3-bromo-4-hydroxy-phenyl)-2-hydroxyimino-propionylamino]-ethyldisulfanyl}-ethylcarbamoyl)-propoxy]-biphenyl-4-yl}-acrylic acid], the IC50 with Human NCI-H460 NSCLC is under 5 µM.
For the compound `O=C(O)/C=C/c1ccc(-c2ccc(OCCCC(=O)NO)c(C34CC5CC(CC(C5)C3)C4)c2)cc1` [Compound 1, 3-[3′-Adamantan-1-yl-4′-(3-hydroxycarbamoyl-propoxy)-biphenyl-4-yl]-acrylic acid], the IC50 in the series on MM487-Luc mesothelioma was 1.7 ± 0.08 µM; with Human NCI-H460 NSCLC it was under 5 µM; in series [1], 8.3 ± 0.2 µM; in series [2], 4.2 ± 0.3 µM; in series [3], 3.9 ± 0.1 µM. Also, the “RI (Resistance Index, ratio between the IC50 values of resistant and sensitive cells)” value in series [3] came to 0.9.
By melting point is commonly meant the temperature, or range, at which the solid turns liquid. As to `O=C(O)/C=C/c1ccc(-c2ccc(OCCCCC(=O)NO)c(C34CC5CC(CC(C5)C3)C4)c2)cc1` [Compound 2, 3-[3′-Adamantan-1-yl-4′-(4-hydroxycarbamoyl-butoxy)-biphenyl-4-yl]-acrylic acid], the melting point was 224 °C (dec.). Further, the half-maximal inhibitory concentration (IC50) in the series on MM487-Luc mesothelioma was found to be 1.9 ± 0.2 µM. In addition, the IC50 with Human NCI-H460 NSCLC was under 5 µM. For the same compound, the IC50 in series [1] came to 5.9 ± 0.1 µM. In addition, the IC50 in series [2] was 3.7 ± 0.3 µM. In series [3], the “RI (Resistance Index, ratio between the IC50 values of resistant and sensitive cells)” value was determined as 1.3; the IC50 amounted to 4.5 ± 0.07 µM. Further, in the series with U87MG-Luc (Glioma) (day +35), the “BLI Average (Day)” value is given as 1.31 × 10^5 ± 1.26 × 10^5 p/s/cm^2/sr. In addition, the TGI with U87MG-Luc (Glioma) worked out at 72%. Moreover, the IC50 with U87MG glioblastoma cells amounted to 5.5 ± 0.9 µM.
Take `NNC(=O)COc1ccc(-c2ccc(C=CC(=O)O)cc2)cc1C12CC3CC(CC(C3)C1)C2` [Compound 17, 3-(3′-adamantan-1-yl-4′-hydrazinocarbonylmethoxy-biphenyl-4-yl)-acrylic acid trifluoroacetate]: the IC50 in series [1] amounted to 17.3 ± 1.3 µM.
As to `O=C(O)/C=C/c1ccc(-c2ccc(OC(=O)CCC(=O)NCCSSCCNC(=O)/C(Cc3ccc(O)c(Br)c3)=N/O)c(C34CC5CC(CC(C5)C3)C4)c2)cc1` [Compound 6, 3-{3′-Adamantan-1-yl-4′-[3-(2-{2-[3-(3-bromo-4-hydroxy-phenyl)-2-hydroxyimino-propionylamino]-ethyldisulfanyl}-ethylcarbamoyl)-propionyloxy]-biphenyl-4-yl}-acrylic acid], the IC50 in the series with Human NCI-H460 NSCLC is under 0.1 µM.
As to `N.N.[Cl][Pt][Cl]` [Cisplatin, reference compound], the “TGI Day + 35” value in [4] (combination same doses) is 34%.
In the case of `CC(C)(Oc1ccc(-c2ccc(/C=C/C(=O)O)cc2)cc1C12CC3CC(CC(C3)C1)C2)C(=O)NO` [BIO146], in the series on Human NCI-H460 NSCLC (72 h, SRB/MTT assay), the “cytotoxic activity / IC50 range on NCI-H460 cells” value is recorded as “micro molar range”.
For the compound `O=C(O)/C=C/c1ccc(-c2ccc(O)c(C34CC5CC(CC(C5)C3)C4)c2)cc1` [Adarotene, reference compound], the IC50 is 9.2 ± 0.3 µM in the series with MM487-Luc mesothelioma, 26.9 ± 0.7 µM in series [1] and 1.63 ± 0.1 µM with U87MG glioblastoma cells. Further, the “BWL Day + 35” value in [4] (Adarotene 15 mg/Kg OS q7dx5x4w) was determined as 12%. Besides, in series [5], the “resistance of H460-R9A with respect to parental H460” value is listed as “about 70 fold”.
With `O=C(O)/C=C/c1ccc(-c2ccc(OCCC(=O)NO)c(C34CC5CC(CC(C5)C3)C4)c2)cc1` [Compound 12, 3-[3′-Adamantan-1-yl-4′-(2-hydroxycarbamoyl-ethoxy)-biphenyl-4-yl]-acrylic acid], the IC50 in [1] stood at 10.6 ± 0.3 µM.
The same measure, in the same setting: with `O=C(COc1ccc(-c2ccc3cc(C(=O)O)ccc3c2)cc1C12CC3CC(CC(C3)C1)C2)NOC1CCCCO1` (stereo not shown) [Compound 13, 6-{3-Adamantan-1-yl-4-[(tetrahydro-pyran-2-yloxycarbamoyl)-methoxy]-phenyl}-naphthalene-2-carboxylic acid] the figure was 16.9 ± 0.5 µM; with `O=C(COc1ccc(-c2ccc3cc(C(=O)O)ccc3c2)cc1C12CC3CC(CC(C3)C1)C2)NO` [Compound 14, 6-(3-Adamantan-1-yl-4-hydroxycarbamoylmethoxy-phenyl)-naphthalene-2-carboxylic acid], 2.3 ± 0.4 µM.
Take `O=C(O)C=Cc1ccc(-c2ccc(OCCCCCCCC(=O)NO)c(C34CC5CC(CC(C5)C3)C4)c2)cc1` [Compound 3, 3-[3′-Adamantan-1-yl-4′-(7-hydroxycarbamoyl-heptyloxy)-biphenyl-4-yl]-acrylic acid]: in the series with Human NCI-H460 NSCLC, the IC50 was at most 5 µM.
Same read-out and setting: with `NCCSSCCNC(=O)CCCOc1ccc(-c2ccc(/C=C/C(=O)O)cc2)cc1C12CC3CC(CC(C3)C1)C2` [Compound 4, 2-(2-{4-[3-Adamantan-1-yl-4′-(2-carboxy-vinyl)-biphenyl-4-yloxy]-butyrylamino}-ethyldisulfanyl)-ethyl-ammonium; trifluoroacetate] the figure was at most 10 µM.
